Legend:
[1] = tested on: HT21 (DNA, G4) GGGTTAGGGTTAGGGTTAGGG; assay: ITC; settings: for K a1: two-event model, high-affinity site
[2] = tested on: HT21 (DNA, G4) GGGTTAGGGTTAGGGTTAGGG; assay: UV melting; settings: NH4+ 30 mM, compound concentration not given in material
[3] = tested on: L-HT21 (L-DNA, G4, all nucleotides L-DNA (enantiomer of HT21)) GGGTTAGGGTTAGGGTTAGGG; assay: CD; settings: NH4+ 30 mM; mirror image CD of the HT21 complex
[4] = tested on: HT21 (DNA, G4) GGGTTAGGGTTAGGGTTAGGG; assay: UV melting, 295 nm; settings: no monovalent cation added; compound concentration not given in material
[5] = NH4+ 30 mM, 20 mM MOPS pH 6.5, 298 K
[6] = value given for CuL1-CuL4 together

Row | K a1 [1, 5] | ΔTm [2, 6] | ΔTm [2] | Structure (SMILES) | also measured
1 | (1.7 ± 0.3) × 10^7 M^–1 | ~ 20 °C | – | CN(C)CCOc1ccc(-c2cc(-c3ccccn3)nc(-c3ccccn3)c2)cc1.O=[N+]([O-])[O-].O=[N+]([O-])[O-].[Cu+2] | –
2 | – | – | ~ 10 °C | Cc1ccc(-c2cc(-c3ccccn3)nc(-c3ccccn3)c2)cc1.O=[N+]([O-])[O-].O=[N+]([O-])[O-].[Cu+2] | Ka ([1]; NH4+ 30 mM, 20 mM MOPS pH 6.5, 298 K, one-event binding model): (2.0 ± 0.5) × 10^5 M^–1
3 | (1.7 ± 0.2) × 10^7 M^–1 | ~ 20 °C | – | O=[N+]([O-])[O-].O=[N+]([O-])[O-].[Cu+2].c1ccc(-c2cc(-c3ccc(OCCN4CCCC4)cc3)cc(-c3ccccn3)n2)nc1 | binding [3]: yes; Ka ([1]; no monovalent cation added, 298 K, three-event model, first (strongest) event): (1.5±0.6)E8 M^-1; ΔTm [4]: ~ 13 °C
4 | (1.7 ± 0.3) × 10^7 M^–1 | ~ 20 °C | – | O=[N+]([O-])[O-].O=[N+]([O-])[O-].[Cu+2].c1ccc(-c2cc(-c3ccc(OCCN4CCCCC4)cc3)cc(-c3ccccn3)n2)nc1 | –
5 | (1.7 ± 0.3) × 10^7 M^–1 | ~ 20 °C | – | O=[N+]([O-])[O-].O=[N+]([O-])[O-].[Cu+2].c1ccc(-c2cc(-c3ccc(OCCN4CCOCC4)cc3)cc(-c3ccccn3)n2)nc1 | –
6 | – | – | ~ 5 °C | O=[N+]([O-])[O-].O=[N+]([O-])[O-].[Cu+2].c1ccc(-c2cccc(-c3ccccn3)n2)nc1 | binding ([1]; NH4+ 30 mM, 20 mM MOPS pH 6.5, 298 K, affinity too low to be determined): weak
